Reference: US9198420B2, “Rodenticidal norbormide analogues” (priority 2012, dated 2015)
Read-outs that look alike come from different tables or passages of the source. Marks after values point to notes of the source that are not given here.

Assays:
[1] = tested on: Sprague Dawley rats; assay: Palatability (choice) trial, peanut butter bait; format: in vivo, rat (Sprague Dawley); details: 2 days
[2] = tested on: Sprague Dawley rats; assay: In vivo lethality, oral gavage; parameters: species or system rat (Sprague Dawley); details: rat; for Time to Death (min) / Onset of Symptoms: mean time; for Onset of Symptoms: visual signs of distress consistent with NRB-like symptoms; for In vivo lethality (oral): n = 2
In short: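 Sprague Dawley rats (150-200 g) received compound dissolved in 0.2 M HCl (5% DMSO overall) at the desired dose, by oral gavage or tail-vein i.v. injection. Animals were watched for early toxicity signs every minute (i.v.) or every 15 min (oral).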

[3] = tested on: rat caudal artery; assay: Rat caudal artery ring contractile force (vasoconstrictory activity); parameters: species or system rat (male Wistar); details: for Emax: Table 1, read-out: Vasoconstriction: maximum contractile effect as a % of 90 mM KCl contraction
In short: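 Endothelium-denuded caudal artery rings from male Wistar rats were held at 2 g resting tension in Tyrode solution (37° C, pH 7.35, 95% O2/CO2) and isometric force was recorded. Compounds were tested at 50 μM, with contraction expressed as percent of the 90 mM KCl response.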

[4] = tested on: Sprague Dawley rats; assay: In vivo lethality, intravenous injection via the tail; parameters: species or system rat (Sprague Dawley); details: 20 mg/Kg, rat, n = 2
Procedure: Sprague Dawley rats (150-200 g) were used to appraise the rodenticidal activity of the compounds put forward for in vivo evaluation. Briefly, prior to administration the compounds were dissolved in 0.2 M hydrochloric acid (5% DMSO overall), to the desired dose, and without delay either injected intravenously, via the tail, or orally gavaged. All treated animals were housed in a quiet room and monitored every minute (i.v) or every 15 min (oral) to verify early signs of toxicity.

[5] = tested on: Sprague Dawley rats; assay: Palatability (no-choice) trial, peanut butter bait; format: in vivo, rat (Sprague Dawley); details: 1% w/w toxicant in peanut butter bait; for mortality at 1 %: po
From the text: In the palatability trials, Sprague Dawley rats (ca. 250 g) were presented with 1% w/w compound (n=6) or 0.5% w/w compound (n=5) in a peanut butter bait, following 3 days ‘pre-baiting’ with a peanut butter formulation free of toxicant.

[6] = Simulated gastric fluid (SGF) hydrolytic stability assay; format: physicochemical; details: footnote c: compounds not exhibiting vasoconstriction; simulated gastric fluid without pepsin, pH 1.2, 37° C., 1 h, n = 3
Procedure: All in vivo candidates were subjected to a 1 h hydrolytic stability appraisal in the presence of SGF, without pepsin (United States Pharmacopoeia 24) [200 μL total volume, sodium chloride solution (0.03 M) acidified to pH 1.2 with concentrated hydrochloric acid, at a final compound concentration of 200 μM, 2.5% DMSO overall, 37° C., n=3], to investigate any potential chemical instabilities that may occur in the acidic environment of the stomach prior to uptake. Analysis was by RP-LCMS at an injection volume of 5 μL.

[7] = Rat serum assay (release of NRB or NRB analogue); format: in vitro ADME; details: 80% rat serum, 37° C., 3 h, n = 3
Procedure: The hydrolytic stability of compounds of the invention in rat blood was evaluated using in vitro rat serum obtained from Sigma-Aldrich and stored at −78° C. Similar assay conditions to those reported by Li Di and co-workers (Int. J. Pharm. 2005, 297, 110-119) were followed [200 μL total volume, 80% rat serum (diluting with phosphate buffer (0.1 M, pH 7.4)), at a final compound concentration of 200 μM, 2.5% DMSO overall, 37° C., 3 h, n=3] using an Eppendorf Thermomixer Compact. Reactions were quenched by transferring 150 μL of the incubation mixture to 450 μL of ice-cold acetonitrile, affording a final compound/NRB or NRB analogue concentration of 50 μM. Samples were centrifuged at 14,500×g for 15 min using an Eppendorf Mini Spin Plus centrifuge, at ambient temperature. 400 μL of the supernatant was removed and transferred to clean tubes. Analysis was by RP-LCMS at an injection volume of 20 μL. Each compound and corresponding NRB or NRB analogue were subjected to external calibration curves at 50 μM, 100 μM and 200 μM to allow conversion of absorbance unit area into nmol, from which the percentage of NRB or NRB analogue released from each compound was calculated.

[8] = choice of EPA diet (20 g) and bait with 1% w/w toxicant (20 g), n = 12, Table 14
[9] = choice of standard lab pellets (20 g) and bait with 1% w/w toxicant (20 g), n = 12, Table 13
[10] = choice of EPA diet (20 g) and bait with 1% w/w toxicant (20 g), n = 2, Table 15
[11] = n = 6, 3 male and 3 female rats, Table 11, read-out: No of deaths (converted)

Row | Compound | Time to Death (min) ([2]; 20 mg/Kg) | Onset of Symptoms ([2]; 20 mg/Kg) [min] | In vivo lethality (oral) ([2]; 40 mg/Kg) | Emax [3] [%] | Vasoconstriction: maximum contractile effect as a % of 90 mM KCl contraction ([3]; Table 4, pre-cleavage, n = 3) [%] | No of deaths [1, 10] | melting point [°C] | further results
1 | O=C(C=Cc1ccccc1)OCN1C(=O)C2C3C=C(C(O)(c4ccccc4)c4ccccn4)C(C3=C(c3ccccc3)c3ccccn3)C2C1=O (stereo not drawn) [Compound 19, N-Cinnamoyloxymethyl-5-(α-hydroxy-α-2-pyridylbenzyl)-7-(α-2-pyridylbenzylidene)-5-norbornene-2,3-dicarboximide] | 90^d min | 20 | yes^h,i | 0 | 0 |  |  | No of deaths [1, 8]: 1/12; No of deaths [1, 9]: 2/12; In vivo lethality (oral) ([2]; 20 mg/Kg): yes^h,i; In vivo lethality (i.v.) [4]: yes^f; No of deaths ([5]; n = 6, male rats only, Table 10): 5/5^b
2 | CC(=Cc1ccccc1)C(=O)OCCN1C(=O)C2C3C=C(C(O)(c4ccccc4)c4ccccn4)C(C3=C(c3ccccc3)c3ccccn3)C2C1=O (stereo not drawn) [Compound 121, 5-(α-Hydroxy-α-2-pyridylbenzyl)-N-2′-α-methylcinnamoyloxyethyl-7-(α-2-pyridylbenzylidene)-5-norbornene-2,3-dicarboximide] | not lethal | 20 |  |  | 0 | 3/12 |  | % NRB released, Hydrolytic Stability (simulated gastric fluid) [6]: 0^c %; % NRB released, Rat Serum [7]: 19.1 ± 1.3%; Vasoconstriction: maximum contractile effect as a % of 90 mM KCl contraction ([3]; Table 1, compound at 50 μM): 0%; No of deaths ([5]; n = 6, 3 male and 3 female rats, Table 11): 6/6
3 | COc1ccccc1C=CC(=O)OCCN1C(=O)C2C3C=C(C(O)(c4ccccc4)c4ccccn4)C(C3=C(c3ccccc3)c3ccccn3)C2C1=O (stereo not drawn) [Compound 124, 5-(α-Hydroxy-α-2-pyridylbenzyl)-N-[2′-(2″-methoxycinnamoyloxy)ethyl]-7-(α-2-pyridylbenzylidene)-5-norbornene-2,3-dicarboximide] |  |  |  | 23 |  |  | 101 to 108 | 
4 | COc1ccc(C=CC(=O)OCCN2C(=O)C3C4C=C(C(O)(c5ccccc5)c5ccccn5)C(C4=C(c4ccccc4)c4ccccn4)C3C2=O)cc1 (stereo not drawn) [Compound 126, 5-(α-Hydroxy-α-2-pyridylbenzyl)-N-[2′-(4″-methoxycinnamoyloxy)ethyl]-7-(α-2-pyridylbenzylidene)-5-norbornene-2,3-dicarboximide] | 50^d min | 25 | yes^h,i | 0 | 0 |  |  | No of deaths [1, 8]: 8/11^b; No of deaths [1, 9]: 10/12; In vivo lethality (oral) ([2]; 20 mg/Kg): yes^h,i; In vivo lethality (i.v.) [4]: yes^f; mortality at 1 % ([5]; n = 6, male rats only, Table 10, read-out: No of deaths (converted)): 83.3%
5 | O=C(C=Cc1ccc(OC(F)(F)F)cc1)OCCN1C(=O)C2C3C=C(C(O)(c4ccccc4)c4ccccn4)C(C3=C(c3ccccc3)c3ccccn3)C2C1=O (stereo not drawn) [Compound 127, 5-(α-Hydroxy-α-2-pyridylbenzyl)-7-(α-2-pyridylbenzylidene)-N-[2′-(4″-trifluoromethoxycinnamoyloxy)ethyl]-5-norbornene-2,3-dicarboximide] |  |  |  | 0 | 0 |  | 100 to 105 | 
6 | O=C(C=Cc1ccc([N+](=O)[O-])cc1)OCCN1C(=O)C2C3C=C(C(O)(c4ccccc4)c4ccccn4)C(C3=C(c3ccccc3)c3ccccn3)C2C1=O (stereo not drawn) [Compound 130, 5-(α-Hydroxy-α-2-pyridylbenzyl)-N-[2′-(4″-nitrocinnamoyloxy)ethyl]-7-(α-2-pyridylbenzylidene)-5-norbornene-2,3-dicarboximide] |  |  |  | 20 |  |  | 105 to 110 | 
7 | COc1cc(C=CC(=O)OCCN2C(=O)C3C4C=C(C(O)(c5ccccc5)c5ccccn5)C(C4=C(c4ccccc4)c4ccccn4)C3C2=O)cc(OC)c1OC (stereo not drawn) [Compound 133, 5-(α-Hydroxy-α-2-pyridylbenzyl)-7-(α-2-pyridylbenzylidene)-N-[2′-(3″,4″,5″-trimethoxycinnamoyloxy)ethyl]-5-norbornene-2,3-dicarboximide] |  |  |  | 30 |  |  | 109 to 113 | 
8 | O=C(C=Cc1ccc(Cl)c(Cl)c1)OCCN1C(=O)C2C3C=C(C(O)(c4ccccc4)c4ccccn4)C(C3=C(c3ccccc3)c3ccccn3)C2C1=O (stereo not drawn) [Compound 134, N-[2′-(3″,4″-Dichlorocinnamoyloxy)ethyl]-5-(α-hydroxy-α-2-pyridylbenzyl)-7-(α-2-pyridylbenzylidene)-5-norbornene-2,3-dicarboximide] |  |  |  | 0 | 0 |  | 99 to 104 | 
9 | Cc1ccc(CC(=O)OCN2C(=O)C3C4C=C(C(O)(c5ccccc5)c5ccccn5)C(C4=C(c4ccccc4)c4ccccn4)C3C2=O)cc1 (stereo not drawn) [Compound 324, 5-(α-Hydroxy-α-2-pyridylbenzyl)-N-4-methylphenylacetoyloxymethyl-7-(α-2-pyridylbenzylidene)-5-norbornene-2,3-dicarboximide] | 60^d min | 15 | yes^h,i | 17 | 17 | 5/12 |  | In vivo lethality (oral) ([2]; 20 mg/Kg): yes^h,i; mortality at 1 % [5, 11]: 100%
10 | CCc1ccc(C=CC(=O)OCCN2C(=O)C3C4C=C(C(O)(c5ccccc5)c5ccccn5)C(C4=C(c4ccccc4)c4ccccn4)C3C2=O)cc1 (stereo not drawn) [Compound 335, N-[2′-(4″-Ethylcinnamoyloxy)ethyl]-5-(α-hydroxy-α-2-pyridylbenzyl)-7-(α-2-pyridylbenzylidene)-5-norbornene-2,3-dicarboximide] | 90^e min | 15 | yes^h | 19 | 19 | 7/12 |  | mortality at 1 % [5, 11]: 100%
11 | O=C1NC(=O)C2C3C(C(O)(c4ccccc4)c4ccccn4)=CC(C3=C(c3ccccc3)c3ccccn3)C12 (stereo not drawn) [NRB, 5-(α-Hydroxy-α-2-pyridylbenzyl)-7-(α-2-pyridylbenzylidene)-5-norbornene-2,3-dicarboximide, reference compound] |  |  |  | 132 |  | 5/12 |  | No of deaths [1, 8]: 2/12; No of deaths [1, 9]: 5/12; Vasoconstriction: maximum contractile effect as a % of 90 mM KCl contraction ([3]; Table 5, compounds of formula (III)): ^aMaximum contractile effect as a % of 90 mM KCl contraction (rat caudal artery); stereoisomeric mixture of NRB = 132%.; Vasoconstriction: maximum contractile effect as a % of 90 mM KCl contraction ([3]; Table 7, compounds of formula (V)): ^aMaximum contractile effect as a % of 90 mM KCl contraction (rat caudal artery); stereoisomeric mixture of NRB = 132%.
